# According to patent US11667651B2, “Aminopyridine derivatives as phosphatidylinositol phosphate kinase inhibitors” (HiberCell, Inc., priority 2017, dated 2023):
# pIC50: −log10 of the molar value.
# Target: T1, PIP4K2A (Homo sapiens, UniProt P48426)
# T1 sequence (P48426 1-406): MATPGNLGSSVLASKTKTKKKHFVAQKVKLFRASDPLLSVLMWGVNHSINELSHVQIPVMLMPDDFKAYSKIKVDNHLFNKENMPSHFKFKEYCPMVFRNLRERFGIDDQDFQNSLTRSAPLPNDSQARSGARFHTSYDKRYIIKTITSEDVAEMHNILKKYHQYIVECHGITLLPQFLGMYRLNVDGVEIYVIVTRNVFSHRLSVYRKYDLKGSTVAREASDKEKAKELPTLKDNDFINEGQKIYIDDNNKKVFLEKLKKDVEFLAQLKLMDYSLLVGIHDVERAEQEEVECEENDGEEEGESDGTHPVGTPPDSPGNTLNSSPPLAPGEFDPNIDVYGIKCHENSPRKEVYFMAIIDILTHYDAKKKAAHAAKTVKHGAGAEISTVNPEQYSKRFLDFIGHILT
# Test: Kinase Assay PIP4K2 A (Table 2)
# Type: biochemical
# Set-up: 4 nM PIP4K2A (full length protein, SignalChem); purchased SignalChem
# Details: compounds listed under IC50 bins
# Protocol: Dilution series of the compounds were prepared in DMSO at 100 times the final assay concentration (n1=n0/3 in 10 points). The compounds were further diluted to three times the assay concentration in assay buffer (20 mM MOPS pH 7.2, 25 mM magnesium chloride, 0.005% Tween 20). 6 μL of the diluted compounds were added to a 384 well assay plate followed by 9 μL of a mix consisting of 4 nM PIP4K2A (full length protein, SignalChem) and 100 μM PI(5)P diC8 (Tebu-Bio). Enzyme and compounds were pre-incubated at room temperature for 15 minutes.
# Then 3 μL of a solution containing 60 μM ATP (Promega) in assay buffer was added to the wells containing compound and enzyme and mixing was performed by pipetting several times. The reaction was incubated at room temperature for 1 h. Then 18 μL of ADP-Glo™ Reagent (Promega) was added to stop the kinase reaction and deplete the unconsumed ATP, mixing was performed by pipetting several times. The plate was incubated at room temperature for 40 minutes before addition of 36 μL of Kinase Detection Reagent (Promega) to convert ADP to ATP and introduce luciferase and luciferin to detect ATP. The reaction was incubated at room temperature for 40 minutes before the luminescence was measured in a in a Victor 3V 1420 multilabel counter (Perkin Elmer).
# Percent inhibition of the compounds as compared to dimethyl sulfoxide treated control samples was calculated. Compound concentration versus percent inhibition were fitted to generate IC50 values.
row,SMILES,pIC50
1,"CN(C)C(=O)c1ccc(-c2ccc(Nc3cccnc3)nc2)cc1 [Example 1, N,N-dimethyl-4-(6-(pyridin-3-ylamino)pyridin-3-yl)benzamide]",6.00 to 7.00
2,"Cc1cc(C(=O)N(C)C)ccc1-c1ccc(Nc2cccnc2)nc1 [Example 2, N,N,3-trimethyl-4-(6-(pyridin-3-ylamino)pyridin-3-yl)benzamide]",< 6.00
3,"CN(C)C(=O)c1ccc(-c2ccc(Nc3cccnc3)nc2)cn1 [Example 3, N,N-dimethyl-6′-(pyridin-3-ylamino)-[3,3′-bipyridine]-6-carboxamide]",< 6.00
4,"CN(C)C(=O)C#Cc1ccc(Nc2cccnc2)nc1 [Example 4, N,N-dimethyl-3-(6-(pyridin-3-ylamino)pyridin-3-yl)propiolamide]",< 6.00
5,"CN(C)C(=O)c1ccc(-c2ccc(Nc3cccnc3)nc2)s1 [Example 5, N,N-dimethyl-5-(6-(pyridin-3-ylamino)pyridin-3-yl)thiophene-2-carboxamide]",< 6.00
6,"CN(C)C(=O)C1CC=C(c2ccc(Nc3cccnc3)nc2)CC1 (stereo not drawn) [Example 6, N,N-dimethyl-4-(6-(pyridin-3-ylamino)pyridin-3-yl)cyclohex-3-ene-1-carboxamide]",< 6.00
7,"CN(C)C(=O)[C@H]1CC[C@H](c2ccc(Nc3cccnc3)nc2)CC1 [Example 7, (r,4r)-N,N-dimethyl-4-(6-(pyridin-3-ylamino)pyridin-3-yl)cyclohexane-1-carboxamide]",< 6.00
8,"CN(C)C(=O)[C@H]1CC[C@@H](c2ccc(Nc3cccnc3)nc2)CC1 [Example 8, (1s,4s)-N,N-dimethyl-4-(6-(pyridin-3-ylamino)pyridin-3-yl)cyclohexane-1-carboxamide]",< 6.00
9,"CN(C)C(=O)c1ccc(-c2ccc(Nc3cccnc3)nc2)nc1 [Example 9, N,N-dimethyl-6′-(pyridin-3-ylamino)-[2,3′-bipyridine]-5-carboxamide]",< 6.00
10,"Cc1cc(-c2ccc(Nc3cccnc3)nc2)ccc1C(=O)N(C)C [Example 10, N,N,2-trimethyl-4-(6-(pyridin-3-ylamino)pyridin-3-yl)benzamide]",< 6.00
11,"O=C(c1ccc(-c2ccc(Nc3cccnc3)nc2)cc1)N1CCC1 [Example 11, azetidin-1-yl(4-(6-(pyridin-3-ylamino)pyridin-3-yl)phenyl)methanone]",7.00 to 8.00
12,"CN(C)C(=O)c1ccc(-c2ccc(Nc3cncc(N4CCCC4=O)c3)nc2)cc1F [Example 12, 2-fluoro-N,N-dimethyl-4-(6-((5-(2-oxopyrrolidin-1-yl)pyridin-3-yl)amino)pyridin-3-yl)benzamide]",7.00 to 8.00
13,"CN(C)C(=O)c1ccc(-c2ccc(Nc3cncc(N4CCCC4=O)c3)nc2)c(F)c1 [Example 13, 3-fluoro-N,N-dimethyl-4-(6-((5-(2-oxopyrrolidin-1-yl)pyridin-3-yl)amino)pyridin-3-yl)benzamide]",7.00 to 8.00
14,"CN(C)C(=O)c1cc(F)c(-c2ccc(Nc3cncc(N4CCCC4=O)c3)nc2)cc1F [Example 14, 2,5-difluoro-N,N-dimethyl-4-(6-((5-(2-oxopyrrolidin-1-yl)pyridin-3-yl)amino)pyridin-3-yl)benzamide]",6.00 to 7.00
15,"Cc1cc(Nc2cccnc2)ncc1-c1ccc(C(=O)N(C)C)cc1 [Example 16, N,N-dimethyl-4-(4-methyl-6-(pyridin-3-ylamino)pyridin-3-yl)benzamide]",6.00 to 7.00
16,"CCc1cc(Nc2cccnc2)ncc1-c1ccc(C(=O)N(C)C)cc1 [Example 17, 4-(4-ethyl-6-(pyridin-3-ylamino)pyridin-3-yl)-N,N-dimethylbenzamide]",6.00 to 7.00
17,"CN(C)C(=O)c1ccc(-c2cnc(Nc3cccnc3)cn2)cc1 [Example 18, N,N-dimethyl-4-(5-(pyridin-3-ylamino)pyrazin-2-yl)benzamide]",6.00 to 7.00
18,"CN(C)C(=O)c1ccc(-c2cnc(Nc3cncc(N4CCCC4=O)c3)cn2)cc1 [Example 19, N,N-dimethyl-4-(5-((5-(2-oxopyrrolidin-1-yl)pyridin-3-yl)amino)pyrazin-2-yl)benzamide]",6.00 to 7.00

row,SMILES,pIC50
1,"CN(C)C(=O)c1ccc(-c2cnc(Nc3cncc(N4CCCC4=O)c3)cn2)cc1F [Example 20, 2-fluoro-N,N-dimethyl-4-(5-((5-(2-oxopyrrolidin-1-yl)pyridin-3-yl)amino)pyrazin-2-yl)benzamide]",6.00 to 7.00
2,"CN(C)C(=O)c1ccc(-c2cnc(Nc3cncc(N4CCCC4=O)c3)cn2)c(F)c1 [Example 21, 3-fluoro-N,N-dimethyl-4-(5-((5-(2-oxopyrrolidin-1-yl)pyridin-3-yl)amino)pyrazin-2-yl)benzamide]",6.00 to 7.00
3,"CN(C)C(=O)c1cc(F)c(-c2cnc(Nc3cncc(N4CCCC4=O)c3)cn2)cc1F [Example 22, 2,5-difluoro-N,N-dimethyl-4-(5-((5-(2-oxopyrrolidin-1-yl)pyridin-3-yl)amino)pyrazin-2-yl)benzamide]",< 6.00
4,"CN(C)C(=O)c1ccc(-c2cnc(Nc3cncc(N4CCN(Cc5ccccc5)C4=O)c3)cn2)cc1 [Example 23, 4-(5-((5-(3-benzyl-2-oxoimidazolidin-1-yl)pyridin-3-yl)amino)pyrazin-2-yl)-N,N-dimethylbenzamide]",8.00 to 9.00
5,"CN(C)C(=O)c1ccc(-c2ccc(Nc3cncc(N(C)S(C)(=O)=O)c3)nc2)cc1 [Example 24, N,N-dimethyl-4-(6-((5-(N-methylmethylsulfonamido)pyridin-3-yl)amino)pyridin-3-yl)benzamide]",7.00 to 8.00
6,"CN(C)C(=O)c1ccc(-c2ccc(Nc3cncc(N(C)S(=O)(=O)C4CC4)c3)nc2)cc1 [Example 25, N,N-dimethyl-4-(6-((5-(N-methylcyclopropanesulfonamido)pyridin-3-yl)amino)pyridin-3-yl)benzamide]",7.00 to 8.00
7,"CC(C)S(=O)(=O)N(C)c1cncc(Nc2ccc(-c3ccc(C(=O)N(C)C)cc3)cn2)c1 [Example 26, N,N-dimethyl-4-(6-((5-(N-methylpropan-2-ylsulfonamido)pyridin-3-yl)amino)pyridin-3-yl)benzamide]",7.00 to 8.00
8,"CC(C)N(c1cncc(Nc2ccc(-c3ccc(C(=O)N(C)C)cc3)cn2)c1)S(C)(=O)=O [Example 27, 4-(6-((5-(N-isopropylmethylsulfonamido)pyridin-3-yl)amino)pyridin-3-yl)-N,N-dimethylbenzamide]",6.00 to 7.00
9,"CN(C)C(=O)c1ccc(-c2ccc(Nc3cncc(N(C4CC4)S(C)(=O)=O)c3)nc2)cc1 [Example 28, 4-(6-((5-(N-cyclopropylmethylsulfonamido)pyridin-3-yl)amino)pyridin-3-yl)-N,N-dimethylbenzamide]",7.00 to 8.00
10,"CN(C)C(=O)c1ccc(-c2ccc(Nc3cncc(C#N)c3)nc2)cc1 [Example 30, 4-(6-((5-cyanopyridin-3-yl)amino)pyridin-3-yl)-N,N-dimethylbenzamide]",6.00 to 7.00
11,"CC(=O)Nc1cncc(Nc2ccc(-c3ccc(C(=O)N(C)C)cc3)cn2)c1 [Example 31, 4-(6-((5-acetamidopyridin-3-yl)amino)pyridin-3-yl)-N,N-dimethylbenzamide]",7.00 to 8.00
12,"CN(C)C(=O)c1ccc(-c2ccc(Nc3cncnc3)nc2)cc1 [Example 32, N,N-dimethyl-4-(6-(pyrimidin-5-ylamino)pyridin-3-yl)benzamide]",6.00 to 7.00
13,"Cc1ncc(Nc2ccc(-c3ccc(C(=O)N(C)C)cc3)cn2)cn1 [Example 33, N,N-dimethyl-4-(6-((2-methylpyrimidin-5-yl)amino)pyridin-3-yl)benzamide]",< 6.00
14,"COc1ncc(Nc2ccc(-c3ccc(C(=O)N(C)C)cc3)cn2)cn1 [Example 34, 4-(6-((2-methoxypyrimidin-5-yl)amino)pyridin-3-yl)-N,N-dimethylbenzamide]",6.00 to 7.00
15,"Cc1ncccc1Nc1ccc(-c2ccc(C(=O)N(C)C)cc2)cn1 [Example 35, N,N-dimethyl-4-(6-((2-methylpyridin-3-yl)amino)pyridin-3-yl)benzamide]",< 6.00
16,"CN(C)C(=O)c1ccc(-c2ccc(Nc3cnccn3)nc2)cc1 [Example 36, N,N-dimethyl-4-(6-(pyrazin-2-ylamino)pyridin-3-yl)benzamide]",< 6.00
17,"CN(C)C(=O)c1ccc(-c2ccc(Nc3cncc(C(=O)N(C)C)c3)nc2)cc1 [Example 37, 5-((5-(4-(dimethylcarbamoyl)phenyl)pyridin-2-yl)amino)-N,N-dimethylnicotinamide]",< 6.00
18,"CN(C)C(=O)c1ccc(-c2ccc(Nc3cncc(N4CCCC4=O)c3)nc2)cc1 [Example 38, N,N-dimethyl-4-(6-((5-(2-oxopyrrolidin-1-yl)pyridin-3-yl)amino)pyridin-3-yl)benzamide]",7.00 to 8.00
